Assay results as given in patent US20230255938A1, “COMPOSITION FOR INHIBITING SEBUM SECRETION COMPRISING FABP4 INHIBITOR” (THE INDUSTRY & ACADEMIC COOPERATION IN CHUNGNAM NATIONAL …, priority 2022, published 2023).

Key:
Format in all cases: cell-based
[1] = test system: immortalized human sebocytes; test: TLC of intracellular lipids (14C-acetate), IGF-1-induced lipid synthesis; conditions: 1, 2 or 5 μM; TLC 48 hours after IGF-1 (50 ng/mL) treatment; FIG. 1 right
Protocol: (§1) Immortalized human sebocytes were used for the experiment. The cell lines were established as previously described. All procedures were approved by the Institutional Committee of Chungnam National University Hospital. The immortalized human sebocytes were cultured in Sebomed medium (Biochrom, Berlin, Germany) supplemented with 10% fetal bovine serum (Gibco BRL, Rockville, Md., USA) and 5 ng/mL of recombinant human EGF (Invitrogen, Grand Island, N.Y., USA).
For quantitative analysis of intracellular lipids, the present invention used the TLC method as used in previous studies. Briefly, immortalized human sebocytes were cultured in a medium containing 2 μCi of ^14C-acetate and sodium salt (PerkinElmer, Boston, Mass., USA) and allowed to react for 4 hours. Intracellular lipids were extracted with chloroform and methanol (2:1, v/v). The solvent was evaporated and the lipid was resuspended in chloroform. TLC (TLC silica gel 60 F254, Merck KgaA) was used to separate intracellular lipids. After development with hexane and ethyl acetate (6:1, v/v), intracellular lipids were visualized by radioactivity measurement.
The effect of BMS309403 on IGF-1-induced lipid synthesis was measured using an immortalized human sebaceous cell line established in a previous study. Immortalized human sebocytes were treated with 1, 2 or 5 μM of BMS309403. After treatment with BMS309403 for 1 hour, sebocytes were treated with 50 ng/mL of IGF-1 to induce differentiation and lipid synthesis.
IGF-1 increased the Intracellular lipid synthesis such as cholesterol, triglycerides, wax esters and squalene in immortalized human sebocytes.

[2] = test system: PPAR-γ; test: Western blotting of PPAR-γ in IGF-1-treated immortalized human sebocytes; conditions: 1, 2 or 5 μM BMS309403 for 1 hour, then 50 ng/mL IGF-1; Western blot, FIG. 1 upper left
Protocol: as §1
(§2) After harvesting, the cells were lysed in protein extraction solution (Intron, Daejeon, Korea). Equal amounts of protein were then loaded and separated by […], and then the proteins were transferred onto nitrocellulose membranes (Pall Corp., Port Washington, N.Y., USA). After blocking with 5% skim milk, the membranes were incubated with various primary antibodies. The blot was reacted with a secondary antibody conjugated with peroxidase, and were visualized for specific proteins with ECL (BIOMAX, Seoul, Korea). The primary antibodies used in western blot analysis were as follows: Actin, SREBP-1(Santa Cruz, Calif.), PPAR-γ, phospho-IGFR (p-IGFR), phospho-Akt (Cell Signaling Technology, Danvers, Mass.)
(§3) The effect of BMS309403 on IGF-1-induced lipid synthesis was measured using an immortalized human sebaceous cell line established in a previous study. Immortalized human sebocytes were treated with 1, 2 or 5 μM of BMS309403. […]

[3] = test system: SREBP-1; test: Western blotting of SREBP-1 in IGF-1-treated immortalized human sebocytes; conditions: 1, 2 or 5 μM BMS309403 for 1 hour, then 50 ng/mL IGF-1; Western blot, FIG. 1 upper left
Protocol: as §1, §2, §3

[4] = test system: phospho-Akt; test: Western blotting of phospho-Akt in IGF-1-treated immortalized human sebocytes; conditions: 1, 2 or 5 μM BMS309403 for 1 hour, then 50 ng/mL IGF-1; Western blot, FIG. 1 lower left
Protocol: as §1, §2, §3

[5] = test system: phospho-IGFR (p-IGFR); test: Western blotting of phospho-IGFR in IGF-1-treated immortalized human sebocytes; conditions: 1, 2 or 5 μM BMS309403 for 1 hour, then 50 ng/mL IGF-1; Western blot, FIG. 1 lower left
Protocol: as §1, §2, §3

CCc1c(-c2ccccc2)c(-c2ccccc2)nn1-c1ccccc1-c1cccc(OCC(=O)O)c1 [BMS309403]
IGF-1-induced lipid synthesis (cholesterol, triglycerides, wax esters and squalene) [1]: reduced IGF-1-induced lipid synthesis
intracellular lipid accumulation [1]: reduced intracellular lipid accumulation in a dose-dependent manner
synthesis of squalene [1]: significantly reduced
synthesis of wax esters [1]: significantly reduced
level of PPAR-γ (transcription factor related to sebocyte differentiation) [2]: decreased their levels in a dose-dependent manner
level of SREBP-1 (transcription factor related to sebocyte differentiation) [3]: decreased their levels in a dose-dependent manner
phosphorylation of Akt [4]: markedly reduced phosphorylation of IGFR and Akt in a dose-dependent manner
phosphorylation of IGFR [5]: markedly reduced phosphorylation of IGFR and Akt in a dose-dependent manner
